Assay results: patent US11866430B2, “Naphthyridinone compounds useful as T cell activators” (priority 2018, dated 2024)

What was measured:
human DGKα = human DGKα (Homo sapiens (Human), UniProt P23743); assay: biochemical; settings: detergent/lipid micelle substrate; read-out: DGKα IC50
How it was run: (§1)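 Enzymes were baculovirus/Sf9 full-length human DGKα or DGKζ with His tag. The substrate was PS/DAG in octyl glucoside micelles, in MOPS pH 7.5 buffer with NaCl, MgCl2, CaCl2 and DTT.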

[1] = tested on: pre-activated CD4 T cells and Raji cells; assay: Raji CD4 T Cell IL2 Assay; assay type: cell-based; settings: Homo sapiens, Raji
human DGKζ = human DGKζ (Homo sapiens (Human), UniProt Q13574); assay: DGKζ assay (detergent/lipid micelle substrate); assay type: biochemical; settings: detergent/lipid micelle substrate; read-out: DGKζ IC50
How it was run: as §1

Chain of human DGKα (P23743 other isoform, or with tags, fused parts or gaps): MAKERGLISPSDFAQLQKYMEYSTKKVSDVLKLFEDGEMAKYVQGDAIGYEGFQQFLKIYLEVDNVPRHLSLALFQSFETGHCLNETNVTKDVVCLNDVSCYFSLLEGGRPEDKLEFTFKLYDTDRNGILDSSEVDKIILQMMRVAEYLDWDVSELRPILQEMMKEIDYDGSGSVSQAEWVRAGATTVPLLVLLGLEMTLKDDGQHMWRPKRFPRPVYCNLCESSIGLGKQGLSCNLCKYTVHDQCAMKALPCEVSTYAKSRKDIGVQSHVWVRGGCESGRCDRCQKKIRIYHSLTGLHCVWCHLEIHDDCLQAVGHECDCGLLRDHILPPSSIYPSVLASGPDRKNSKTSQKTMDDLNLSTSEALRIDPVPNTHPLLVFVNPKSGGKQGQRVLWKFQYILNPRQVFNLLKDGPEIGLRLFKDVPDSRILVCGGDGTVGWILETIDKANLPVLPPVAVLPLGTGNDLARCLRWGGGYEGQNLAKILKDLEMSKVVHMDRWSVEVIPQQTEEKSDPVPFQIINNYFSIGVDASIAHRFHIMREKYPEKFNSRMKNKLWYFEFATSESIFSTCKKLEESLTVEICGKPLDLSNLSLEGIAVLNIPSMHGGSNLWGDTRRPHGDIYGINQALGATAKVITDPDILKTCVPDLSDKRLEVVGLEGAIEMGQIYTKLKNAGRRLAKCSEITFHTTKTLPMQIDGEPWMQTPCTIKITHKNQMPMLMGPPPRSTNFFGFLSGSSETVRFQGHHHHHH
Chain of human DGKζ (Q13574 other isoform, or with tags, fused parts or gaps): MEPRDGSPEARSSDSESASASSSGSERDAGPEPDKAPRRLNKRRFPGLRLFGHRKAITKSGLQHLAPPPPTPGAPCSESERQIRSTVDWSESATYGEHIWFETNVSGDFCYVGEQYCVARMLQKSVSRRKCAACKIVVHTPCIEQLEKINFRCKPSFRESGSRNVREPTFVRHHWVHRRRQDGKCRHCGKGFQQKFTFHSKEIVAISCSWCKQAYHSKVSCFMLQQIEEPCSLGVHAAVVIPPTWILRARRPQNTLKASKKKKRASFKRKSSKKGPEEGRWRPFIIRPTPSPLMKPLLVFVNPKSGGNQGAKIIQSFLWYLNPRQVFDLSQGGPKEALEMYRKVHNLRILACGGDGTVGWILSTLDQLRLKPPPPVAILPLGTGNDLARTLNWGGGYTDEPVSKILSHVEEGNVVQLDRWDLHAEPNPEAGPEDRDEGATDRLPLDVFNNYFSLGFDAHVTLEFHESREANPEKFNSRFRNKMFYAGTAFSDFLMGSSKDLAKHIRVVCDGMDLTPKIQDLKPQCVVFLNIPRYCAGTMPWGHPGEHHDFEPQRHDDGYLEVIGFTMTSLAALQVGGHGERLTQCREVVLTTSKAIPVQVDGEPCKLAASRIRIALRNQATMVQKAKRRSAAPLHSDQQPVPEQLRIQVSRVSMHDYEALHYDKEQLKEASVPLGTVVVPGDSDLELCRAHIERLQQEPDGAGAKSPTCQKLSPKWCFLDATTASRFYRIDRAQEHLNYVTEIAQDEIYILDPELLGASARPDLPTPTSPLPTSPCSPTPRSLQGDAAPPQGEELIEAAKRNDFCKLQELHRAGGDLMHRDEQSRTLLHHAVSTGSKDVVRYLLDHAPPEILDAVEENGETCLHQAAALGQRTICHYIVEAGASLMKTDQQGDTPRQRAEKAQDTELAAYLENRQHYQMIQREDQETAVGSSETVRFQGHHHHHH

SMILES	IC50 (human DGKα) [µM]	IC50 [1] [µM]	IC50 (human DGKζ) [µM]
Cn1c(=O)c(C#N)c(N2CCN(Cc3ccc(O)c(Cl)c3)CC2)c2nc(Cl)ccc21 [Example 354, 6-chloro-4-{4-[(3-chloro-4-hydroxyphenyl)methyl]piperazin-1-yl}-1-methyl-2-oxo-1,2-dihydro-1,5-naphthyridine-3-carbonitrile]	0.11	2.5	> 240
Cn1c(=O)c(C#N)c(N2CCN(Cc3ccc(O)c(C(F)(F)F)c3)CC2)c2nc(Cl)ccc21 [Example 355, 6-chloro-4-(4-{[4-hydroxy-3-(trifluoromethyl)phenyl]methyl}piperazin-1-yl)-1-methyl-2-oxo-1,2-dihydro-1,5-naphthyridine-3-carbonitrile]	7.1	2.8	> 240
Cc1cc(CN2CCN(c3c(C#N)c(=O)n(C)c4ccc(Cl)nc34)CC2)ccc1O [Example 356, 6-chloro-4-{4-[(4-hydroxy-3-methylphenyl)methyl]piperazin-1-yl}-1-methyl-2-oxo-1,2-dihydro-1,5-naphthyridine-3-carbonitrile]	0.3	3	> 240
Cn1c(=O)c(C#N)c(N2CCN(Cc3cccc4nc[nH]c34)CC2)c2nc(Cl)ccc21 [Example 359, 4-{4-[(1H-1,3-benzodiazol-7-yl)methyl]piperazin-1-yl}-6-chloro-1-methyl-2-oxo-1,2-dihydro-1,5-naphthyridine-3-carbonitrile]	19	8	> 240
Cn1c(=O)c(C#N)c(N2CCN(Cc3cccc4nc[nH]c34)CC2)c2nc(Br)ccc21 [Example 360]	48	9.6	> 240
Cn1c(=O)c(C#N)c(N2CCN(Cc3cc(Cl)cc(Cl)c3O)CC2)c2nc(Br)ccc21 [Example 366, 6-bromo-4-{4-[(3,5-dichloro-2-hydroxyphenyl)methyl]piperazin-1-yl}-1-methyl-2-oxo-1,2-dihydro-1,5-naphthyridine-3-carbonitrile]	1.3	> 100	160
Cn1c(=O)c(C#N)c(N2CCN(Cc3cc(Cl)ccc3O)CC2)c2nc(Br)ccc21 [Example 367, 6-bromo-4-{4-[(5-chloro-2-hydroxyphenyl)methyl]piperazin-1-yl}-1-methyl-2-oxo-1,2-dihydro-1,5-naphthyridine-3-carbonitrile]	0.22	> 100	> 240
COc1cccc(CN2CCN(c3c(C#N)c(=O)n(C)c4ccc(Br)nc34)CC2)c1O [Example 368, 6-bromo-4-{4-[(2-hydroxy-3-methoxyphenyl)methyl]piperazin-1-yl}-1-methyl-2-oxo-1,2-dihydro-1,5-naphthyridine-3-carbonitrile]	0.4	> 100	> 240
Cn1c(=O)c(C#N)c(N2CCN(Cc3cc(OC(F)(F)F)ccc3O)CC2)c2nc(Cl)ccc21 [Example 369, 6-chloro-4-(4-{[2-hydroxy-5-(trifluoromethoxy)phenyl]methyl}piperazin-1-yl)-1-methyl-2-oxo-1,2-dihydro-1,5-naphthyridine-3-carbonitrile]	0.16	> 100	> 240
Cn1c(=O)c(C#N)c(N2CCN(Cc3cc(Cl)ccc3O)CC2)c2nc(Cl)ccc21 [Example 370, 6-chloro-4-{4-[(5-chloro-2-hydroxyphenyl)methyl]piperazin-1-yl}-1-methyl-2-oxo-1,2-dihydro-1,5-naphthyridine-3-carbonitrile]	0.17	> 100	> 240
COc1cccc(CN2CCN(c3c(C#N)c(=O)n(C)c4ccc(Cl)nc34)CC2)c1O [Example 371, 6-chloro-4-{4-[(2-hydroxy-3-methoxyphenyl)methyl]piperazin-1-yl}-1-methyl-2-oxo-1,2-dihydro-1,5-naphthyridine-3-carbonitrile]	0.23	> 100	170
Cn1c(=O)c(C#N)c(N2CCN(Cc3ccc(C(F)(F)F)c(F)c3)CC2)c2nc(Cl)ccc21 [Example 375, 6-chloro-4-(4-{[3-fluoro-4-(trifluoromethyl)phenyl]methyl}piperazin-1-yl)-1-methyl-2-oxo-1,2-dihydro-1,5-naphthylidine-3-carbonitrile]	1.6	> 100	> 240
Cn1c(=O)c(C#N)c(N2CCN(Cc3ccc(Cl)cc3)CC2)c2nc(Cl)ccc21 [Example 417, 6-chloro-4-{4-[(4-chlorophenyl)methyl]piperazin-1-yl}-1-methyl-2-oxo-1,2-dihydro-1,5-naphthyridine-3-carbonitrile]	0.25	0.15	> 240
Cn1c(=O)c(C#N)c(N2CCN(C3(c4ccc(F)cc4)CC3)CC2)c2nc(Cl)ccc21 [Example 421, 6-chloro-4-{4-[1-(4-fluorophenyl)cyclopropyl]piperazin-1-yl}-1-methyl-2-oxo-1,2-dihydro-1,5-naphthyridine-3-carbonitrile]	69	2.8	> 240
Cc1ccc2c(n1)c(N1CCN(C(c3ccc(F)cc3)c3ccc(F)cc3)CC1)cc(=O)n2C [Example 427, 4-{4-[bis(4-fluorophenyl)methyl]piperazin-1-yl}-1,6-dimethyl-1,2-dihydro-1,5-naphthyridin-2-one]	150	2.4	> 240
